The values that follow come from ChEMBL document CHEMBL1201862, “PubChem BioAssay data set” (2004).

Calls of active or inactive are those of the source. Some results are limits rather than exact numbers.

A short description of experiment [1]: Dose-response inhibition of insulin secretion in a rat insulinoma line at 5 mM glucose (AID 1117331). In kind it is functional, cell-based. The following applies: INS-1E.
Experiment [2] is described as follows: half-maximal inhibitory concentration for glucagon-like peptide-1 release, STC-1 cell line, dose-response (AID 1117345). In kind it is functional, cell-based.
A short description of experiment [3]: Glucagon-like peptide 1 release potency, NCI-H716 cell line, dose-response, half-maximal inhibitory concentration (AID 1117344). In kind it is functional, cell-based.
Experiment [4] deals with Sphingosine 1-phosphate receptor 2 (Homo sapiens, UniProt O95136). The experiment in a line: Dose Response Cell Based Assay for Agonists of the S1P2 Receptor. [Related pubchem assays: 729, 736, 843 ]. In kind it is functional.
Sphingosine 1-phosphate receptor 2, sequence (O95136 whole entry): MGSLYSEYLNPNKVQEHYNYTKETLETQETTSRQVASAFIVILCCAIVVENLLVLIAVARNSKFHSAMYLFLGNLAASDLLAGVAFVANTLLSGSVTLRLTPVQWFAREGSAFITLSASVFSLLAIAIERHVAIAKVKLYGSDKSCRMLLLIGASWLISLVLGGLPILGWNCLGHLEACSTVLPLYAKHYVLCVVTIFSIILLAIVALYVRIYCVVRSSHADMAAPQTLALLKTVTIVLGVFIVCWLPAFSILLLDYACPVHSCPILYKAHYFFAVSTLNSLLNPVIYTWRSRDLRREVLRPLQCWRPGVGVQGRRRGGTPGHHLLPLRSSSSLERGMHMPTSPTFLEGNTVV
Experiment [5] has as its target Protein Tat (Human immunodeficiency virus type 1 group M subtype B (isolate HXB2)(HIV-1), UniProt P04608). In kind it is functional.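 Also: tat binding to TAR RNA read out by fluorescence polarization.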
Experiment [6] deals with Large T antigen (Simian virus 40, UniProt P03070). In kind it is functional, Betapolyomavirus macacae.
Large T antigen, sequence (P03070 whole entry): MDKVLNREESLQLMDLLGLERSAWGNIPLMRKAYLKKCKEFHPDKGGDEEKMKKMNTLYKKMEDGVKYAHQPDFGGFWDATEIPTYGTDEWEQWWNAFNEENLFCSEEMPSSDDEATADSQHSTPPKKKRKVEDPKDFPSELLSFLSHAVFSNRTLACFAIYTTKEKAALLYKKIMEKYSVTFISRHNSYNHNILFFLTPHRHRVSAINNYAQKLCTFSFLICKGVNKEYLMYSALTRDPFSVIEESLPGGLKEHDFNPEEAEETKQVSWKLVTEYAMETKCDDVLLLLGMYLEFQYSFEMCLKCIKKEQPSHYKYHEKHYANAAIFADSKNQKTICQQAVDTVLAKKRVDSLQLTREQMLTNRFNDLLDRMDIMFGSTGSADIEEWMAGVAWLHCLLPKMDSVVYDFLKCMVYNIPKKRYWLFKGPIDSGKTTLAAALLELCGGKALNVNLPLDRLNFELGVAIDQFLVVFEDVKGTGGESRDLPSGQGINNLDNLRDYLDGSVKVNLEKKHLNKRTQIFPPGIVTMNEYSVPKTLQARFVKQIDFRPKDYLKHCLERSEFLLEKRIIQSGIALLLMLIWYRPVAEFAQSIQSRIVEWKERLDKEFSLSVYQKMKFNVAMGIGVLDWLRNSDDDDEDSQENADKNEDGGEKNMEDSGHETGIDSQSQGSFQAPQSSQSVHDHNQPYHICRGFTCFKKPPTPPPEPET
Experiment [7] addresses T1, Replicative DNA helicase DnaB (Mycobacterium tuberculosis, UniProt P9WMR3).
T1 sequence (P9WMR3 whole entry): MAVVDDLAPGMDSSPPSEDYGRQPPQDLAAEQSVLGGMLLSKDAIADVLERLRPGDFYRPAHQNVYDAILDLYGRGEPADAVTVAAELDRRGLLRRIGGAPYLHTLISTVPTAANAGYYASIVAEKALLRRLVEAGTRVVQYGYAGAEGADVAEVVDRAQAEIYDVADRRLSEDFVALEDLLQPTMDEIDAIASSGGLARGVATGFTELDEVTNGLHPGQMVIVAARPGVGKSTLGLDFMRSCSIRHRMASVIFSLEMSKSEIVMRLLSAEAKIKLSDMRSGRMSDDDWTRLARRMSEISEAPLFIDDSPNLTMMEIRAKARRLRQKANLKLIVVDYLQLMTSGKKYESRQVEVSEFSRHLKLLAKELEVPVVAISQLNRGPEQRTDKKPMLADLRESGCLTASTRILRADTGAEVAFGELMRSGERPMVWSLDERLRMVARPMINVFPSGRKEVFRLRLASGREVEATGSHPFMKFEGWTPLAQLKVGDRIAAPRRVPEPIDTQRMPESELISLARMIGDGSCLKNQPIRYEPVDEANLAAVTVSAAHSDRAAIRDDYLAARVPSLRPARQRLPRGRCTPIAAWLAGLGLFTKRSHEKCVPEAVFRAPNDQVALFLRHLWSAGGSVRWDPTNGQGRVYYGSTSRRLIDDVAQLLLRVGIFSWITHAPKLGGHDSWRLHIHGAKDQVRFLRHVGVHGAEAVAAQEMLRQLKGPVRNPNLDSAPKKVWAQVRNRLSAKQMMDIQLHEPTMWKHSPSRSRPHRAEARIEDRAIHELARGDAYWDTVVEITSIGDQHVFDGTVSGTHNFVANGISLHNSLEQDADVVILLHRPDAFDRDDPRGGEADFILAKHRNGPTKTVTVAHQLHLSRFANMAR
As to the kind of experiment: DnaB intein splicing inhibitors, dose response, biochemical, cell-free fluorescence (AID 449749). In kind it is functional.

The target of experiment [8] is T2, Protein RecA (Mycobacterium tuberculosis, UniProt P9WHJ3).
T2 sequence (P9WHJ3 whole entry): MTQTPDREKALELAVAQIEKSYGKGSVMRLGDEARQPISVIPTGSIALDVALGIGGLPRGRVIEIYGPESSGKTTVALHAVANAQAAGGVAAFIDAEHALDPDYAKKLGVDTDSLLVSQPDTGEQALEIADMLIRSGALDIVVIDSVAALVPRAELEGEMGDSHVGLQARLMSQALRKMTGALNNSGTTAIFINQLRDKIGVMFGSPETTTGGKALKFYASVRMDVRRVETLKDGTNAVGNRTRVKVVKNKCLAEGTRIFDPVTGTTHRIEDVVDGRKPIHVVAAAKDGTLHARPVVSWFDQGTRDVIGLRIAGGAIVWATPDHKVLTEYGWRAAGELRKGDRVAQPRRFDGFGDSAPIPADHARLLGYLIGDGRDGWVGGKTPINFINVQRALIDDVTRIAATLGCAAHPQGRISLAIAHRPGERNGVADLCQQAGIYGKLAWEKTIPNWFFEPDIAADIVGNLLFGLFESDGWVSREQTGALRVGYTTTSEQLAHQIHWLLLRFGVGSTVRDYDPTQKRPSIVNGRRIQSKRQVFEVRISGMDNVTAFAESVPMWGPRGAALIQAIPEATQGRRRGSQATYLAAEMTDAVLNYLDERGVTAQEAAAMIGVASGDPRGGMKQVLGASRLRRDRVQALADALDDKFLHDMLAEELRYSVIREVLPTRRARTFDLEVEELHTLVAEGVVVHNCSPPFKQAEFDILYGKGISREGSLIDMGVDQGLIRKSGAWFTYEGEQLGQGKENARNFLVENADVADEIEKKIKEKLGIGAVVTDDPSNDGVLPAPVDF
As to the kind of experiment: Fluorescence Cell-Free Homogeneous Dose Retest to Identify Inhibitors of RecA-Intein Splicing Activity. [Related pubchem assays (depositor defined):AID2097, AID2223, AID489010, AID492950]. In kind it is functional.

Experiment [9] addresses Transthyretin (Homo sapiens, UniProt P02766). The experiment in a line: Luminescence-based cell-based high throughput dose response assay to identify activators of Transthyretin (TTR) transcription. In kind it is functional.
The target of experiment [10] is Glyceraldehyde-3-phosphate dehydrogenase (Homo sapiens, UniProt P04406).
Glyceraldehyde-3-phosphate dehydrogenase, sequence (P04406 whole entry): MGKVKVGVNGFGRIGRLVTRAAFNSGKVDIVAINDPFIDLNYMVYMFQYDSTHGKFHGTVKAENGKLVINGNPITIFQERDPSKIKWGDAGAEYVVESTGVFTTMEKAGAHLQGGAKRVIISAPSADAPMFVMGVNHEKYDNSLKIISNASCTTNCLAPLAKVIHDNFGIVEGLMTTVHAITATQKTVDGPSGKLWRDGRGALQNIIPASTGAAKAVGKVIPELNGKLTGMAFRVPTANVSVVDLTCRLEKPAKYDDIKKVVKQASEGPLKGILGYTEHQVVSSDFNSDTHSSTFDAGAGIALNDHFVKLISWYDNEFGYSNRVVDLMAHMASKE
The target in experiment [11] is T3, Bcl-2-related protein A1 (Mus musculus, UniProt Q07440).
T3 sequence (Q07440 whole entry): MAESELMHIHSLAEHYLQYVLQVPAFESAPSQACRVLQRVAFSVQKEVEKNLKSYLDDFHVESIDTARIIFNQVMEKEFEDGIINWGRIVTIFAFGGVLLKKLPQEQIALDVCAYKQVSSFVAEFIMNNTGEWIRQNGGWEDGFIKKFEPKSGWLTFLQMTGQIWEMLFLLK
As to the kind of experiment: Bfl-1 inhibitors blocking BH3 peptide binding, confirmation, biochemical, TR-FRET, mouse Bfl-1 (AID 621).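 Also: TR-FRET binding of GST-Bfl-1 to FITC-labelled Bid peptide via terbium antibody.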

Experiment [12] has as its target T3, Bcl-2-related protein A1. As to the kind of experiment: Bfl-1 binding inhibitors, SAR follow-up, biochemical, fluorescence polarization (AID 1070). On the technique in general: Fluorescence polarisation rises when a labelled molecule tumbles more slowly, as on binding a larger partner.

Protein Tat, sequence (P04608 whole entry): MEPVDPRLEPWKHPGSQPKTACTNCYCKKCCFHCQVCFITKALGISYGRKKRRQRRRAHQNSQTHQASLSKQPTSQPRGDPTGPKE

For `Cc1ccc(O)cc1` [p-CRESOL], the IC50 (in general, the concentration at which inhibition is half-maximal) in experiment [1] was > 33.3 µM (inactive); in experiment [2] it was > 40 µM (inactive); in [3], > 40 µM (inactive).

`CS(=O)(=O)NCc1nnc(SCC(=O)NC2CCCCC2)n1-c1ccc(F)cc1`: the concentration giving a half-maximal response (EC50) (in general, the concentration giving half of the maximal effect) in experiment [4] is > 50 µM (not active).

Turning to `Cn1c(SCC(=O)c2cc(Cl)c(Cl)s2)nnc1-c1ccco1`, in [5], the concentration for half-maximal inhibition (IC50) was > 50 µM (active).

In the case of `O=C(CCl)c1cc2c3c(c1)CC(=O)N3CCC2`, in experiment [6], the half-maximal inhibitory concentration (IC50) is 40.6 µM (active). The AC50 (in general, the midpoint of the concentration-response curve, whichever way the signal moves) in experiment [7] is 35.9 µM (active). Also, the figures for the EC50 in experiment [8] and in experiment [9] were 11.7 µM (active) and > 167 µM (inactive), respectively.

Regarding `CC1CN(C2=C(Cl)C(=O)N(c3ccc(Cl)c(Cl)c3)C2=O)CCN1` (configuration not stated), the half-inhibitory concentration (IC50) in [10] was > 100 µM (not active); in [11], 1.95 µM (active); in experiment [12] it was 6.96 µM (active).
